Consider one compound from US20240124510A1, “Cyclic Glycoaminoacid Derivatives” (TFCHEM, priority 2021, published 2024).

One test deals with human preadipocytes. Description: Total lipid accumulation (AdipoRed staining) in preadipocytes/adipocytes in inflammatory condition. The conditions noted are these: for Total Lipid Accumulation (Adipored staining), Mean / Total Lipid Accumulation (Adipored staining), Values: end of the culture; for Total Lipid Accumulation (Adipored staining), Values: individual values. It counts as cell-based. Here is the method:
(§1) Preadipocytes have been isolated from human female hypodermis (body mass index <30 kg/m2 and <45 years old). Preadipocytes have been cultured for 24 h in 100 μl of DMEM-10% Fetal Bovine Serum (FBS) in 96-well plates. Then cells were treated to induce their differentiation in a classical or an inflammatory environment for 13 days.
(§2) To induce the preadipocytes differentiation cells were incubated in a proadipogenic cocktail (PAC) including insulin, glucocorticoid, 3-isobutyl-1-methylxanthine (IBMX), and thiazolinedione in DMEM.
(§3) To induce a fibro-inflammatory environment, cells were treated with an activated human macrophage-conditioned medium (AcMC) prepared in RPMI medium. A treatment with Dexamethasone (DXM) at 100 nM was used as anti-inflammatory response control. At D0: preadipocytes have been treated in the following conditions: • “Undifferentiation”: DMEM+¼ RPMI medium • “Differentiation”: PAC+¼ RPMI medium • “AcMC” i.e. inflammatory condition: PAC+¼ AcMC • “AcMC+DXM”: PAC+[…] AcMC+anti-inflammatory DXM at 100 nM • “AcMc+compounds”: PAC+14 AcMC+compounds to be tested
(§4) All conditions have been performed in triplicate. The medium has been changed every 2 days for 13 days.
After 14 days of culture, preadipocytes have been fixed with 4% paraformaldehyde and then stained by AdipoRed™ at room temperature to reveal the intracellular lipid droplets. Quantification of lipid accumulation has been performed by fluorescence intensity measurements using the spectrophotometer Spark (TECAN).
Lipid accumulation and Lipid index were evaluated for each condition. Data are represented in percentage of proinflammatory control condition (AcMC condition).

In a further test the test system is procollagen I. Put plainly: Extracellular secretion of procollagen I by preadipocytes in inflammatory condition (ELISA). It is filed as cell-based, human. The settings on record: for Procollagen I secretion, Mean / Procollagen I secretion, Values: normalized by cells number (DAPI); for Procollagen I secretion, Values: individual values; for Procollagen I secretion compared to the AcMC control condition fixed at 100%: preadipocytes. As to the method: as §1, §2, §3, §4
At D14: during the last 24 h of culture, the medium has been replaced by DMEM/F12 medium in all conditions, to collect cells' secretions.
After 13 days, the 24 h culture media of the different conditions have been collected at the end of the treatment period. The concentrations of IL-6, procollagen I and MCP1 have been evaluated by ELISA assays using specific kits (for IL-6: DY206, DuoSet ELISA, R&D Systems; for Procollagen I: DY6220-05, DuoSet ELISA, R&D Systems; for MCP1: DY279-05 DuoSet ELISA, R&D Systems) according to the manufacture's recommendations. Values have been normalized to the cell number determined by DAPI staining.
Extracellular secretions of procollagen I by preadipocytes in inflammatory condition Quantity of procollagen secreted in medium was measured and normalized by cell number in each culture condition. Data are represented in percentage of proinflammatory control conditions (AcMC condition).
(In an ELISA, binding on a coated surface is turned into a signal by an enzyme label.)

The test system of test [1] is Normal human epidermal keratinocytes (NHEK). Put plainly: Lipid peroxidation in NHEK under UV stimulation (C11-fluor probe, flow cytometry). It is filed as cell-based. The settings on record: for % Irradiated control (lipid peroxidation) / % Protection (lipid peroxidation) / C11-fluor 1/GMFI Mean (AU) / C11-fluor 1/GMFI (AU) / C11-fluor GMFI (AU): irradiated UVB 300 mJ/cm^2 (+UVA 2.1 J/cm^2); for C11-fluor 1/GMFI (AU) / C11-fluor GMFI (AU): individual replicates. As to the method: Normal human epidermal keratinocytes were seeded in 48-well plates and cultured in culture medium for 24 hours and then in assay medium for a further 24 hours. The medium was then removed and replaced by assay medium containing or not (irradiated control) the test compounds or the reference (BHA—butylated hydroxyanisole, lipid peroxidation inhibitor—at 100 μM) and the cells were pre-incubated for 24 hours. After pre-incubation, the specific fluorescent probe for the measurement of lipid peroxides (C11-fluor) was added and the cells were incubated for 45 minutes. Then, the medium was removed and replaced by assay medium containing or not (irradiated control and test compound conditions) the reference and the cells were irradiated with UVB (+UVA)−300 mJ/cm^2 (+2.1 J/cm^2). The lamp used was a SOL500 Sun Simulator equipped with an H2 filter (Dr. Hbnle. AG). After irradiation, the medium was removed and replaced by assay medium containing or not (irradiated control) the test compounds or the reference and the cells were incubated for 30 minutes before flow cytometry analysis. A non-irradiated control condition was performed in parallel. All experimental conditions were performed in triplicate.
At the end of the incubation, in each well, the cells were trypsinized and transferred into specific tubes for the analysis of C11-fluor fluorescence intensity using a BD FACSVerse™ flow cytometer (acquisition of 2000 to 5000 events per tube). The C11-fluor fluorescent probe is a lipid analogue which integrates cell membranes. As the fluorescence intensity of this probe is decreased with oxidation, it is inversely proportional to the lipid peroxidation. In order to facilitate the result interpretation, the lipid peroxidation was expressed using the value “1/fluorescence intensity” in order to have a direct proportionality between the induction of lipid peroxidation and the values of “% of irradiated control”.
Results presented in Table 24 are expressed as fluorescence intensity and as […] of protection compared to the control.
In general terms: A flow cytometer gives signals particle by particle.

Several values for one entry are separate records, joined by “and”; a condition that tells them apart may be missing. Equal values may be shown once.

As to `N[C@H]1CCCN(CC(F)(F)[C@]2(O)O[C@H](CO)[C@H](O)[C@H](O)[C@H]2O)C1=O` [Compound 6], in the test on human preadipocytes (AcMC + 1 mg/ml), the “Total Lipid Accumulation (Adipored staining), Mean” value was 126.8 % of AcMC condition; the “Total Lipid Accumulation (Adipored staining), Values” is 130.3 % of AcMC condition and 123.6 % of AcMC condition and 126.5 % of AcMC condition. Moreover, in the test on human preadipocytes (AcMC + 2 mg/ml), the “Total Lipid Accumulation (Adipored staining), Mean” value is 137.0 % of AcMC condition; the “Total Lipid Accumulation (Adipored staining), Values” is 137.2 % of AcMC condition and 132.3 % of AcMC condition and 141.4 % of AcMC condition. Also, the “Total lipid synthesis (lipid accumulation) in the inflammatory media” value in the test with human preadipocytes (both concentration) is “increase lipid synthesis”. Further, in the test on procollagen I (AcMC + 1 mg/ml), the “Procollagen I secretion, Mean” value is 49.9 % of AcMC condition; the “Procollagen I secretion, Values” is 39.3 % of AcMC condition and 57.7 % of AcMC condition and 52.7 % of AcMC condition. In the test on procollagen I (AcMC + 2 mg/ml), the “Procollagen I secretion, Mean” value is 46.2 % of AcMC condition; the “Procollagen I secretion, Values” is 47.0 % of AcMC condition and 40.2 % of AcMC condition and 51.2 % of AcMC condition. Besides, the “Procollagen I secretion compared to the AcMC control condition fixed at 100%” value in the test on procollagen I (1 mg/ml) was determined as 49.9%. For the same compound, the “Procollagen I secretion compared to the AcMC control condition fixed at 100%” value in the test with procollagen I (2 mg/ml) is given as 46.2%. In test [1] (1 mg/ml), the “% Irradiated control (lipid peroxidation)” value was 66%; the “% Protection (lipid peroxidation)” value turned out to be 37%; the “C11-fluor 1/GMFI Mean (AU)” value amounted to 5.6E−04 AU; the “C11-fluor 1/GMFI (AU)” value is 4.7E−04 AU and 5.9E−04 AU and 6.2E−04 AU. Moreover, the “C11-fluor GMFI (AU)” value in test [1] (1 mg/ml) was 2118 AU and 1705 AU and 1608 AU. In test [1] (3 mg/ml), the “% Irradiated control (lipid peroxidation)” value was 65%; the “% Protection (lipid peroxidation)” value was 38%; the “C11-fluor 1/GMFI Mean (AU)” value is on record as 5.6E−04 AU; the “C11-fluor 1/GMFI (AU)” value was 4.7E−04 AU and 5.1E−04 AU and 7.0E−04 AU. In test [1] (3 mg/ml), the “C11-fluor GMFI (AU)” value is 2143 AU and 1970 AU and 1426 AU. The “Protection on lipid peroxidation (compared to the control)” value in test [1] (NHEK irradiated with UVB (+UVA) 300 mJ/cm2 (+2.1 J/cm2), concentration not given) is 38%.
